pKi: −log10 of the molar value. Active and inactive are the calls of the source. The calls are words filed in the database; no cut-off is given here.
Key:
Rattus norvegicus [1] = test: Reduction in heart rate in normotensive anaesthetized Wistar rat at 10 mg/kg, iv; parameters: scale not given: the % may be the effect or the level left
Rattus norvegicus [2] = test: Reduction in mean arterial blood pressure in normotensive anaesthetized Wistar rat at 10 mg/kg, iv; parameters: scale not given: the % may be the effect or the level left
Rattus norvegicus [3] = test: Reduction in heart rate in normotensive anaesthetized Wistar rat at 0.3 mg/kg administered intracisternally; format: functional
Rattus norvegicus [4] = test: Reduction in mean arterial blood pressure in normotensive anaesthetized Wistar rat at 0.3 mg/kg administered intracisternally; format: functional
CHO = test: Selectivity ratio of Ki for I1 imidazoline receptor in rat PC12 cells to Ki for human alpha2 adrenoceptor expressed in CHO cell membranes; format: cell-based
Nischarin = Nischarin (Rattus norvegicus, UniProt Q4G017); test: Displacement of [125I] PIC from I1 imidazoline receptor in rat PC12 cells after 45 mins by gamma counting; format: cell-based, PC-12
Chain of Nischarin (Q4G017 whole entry): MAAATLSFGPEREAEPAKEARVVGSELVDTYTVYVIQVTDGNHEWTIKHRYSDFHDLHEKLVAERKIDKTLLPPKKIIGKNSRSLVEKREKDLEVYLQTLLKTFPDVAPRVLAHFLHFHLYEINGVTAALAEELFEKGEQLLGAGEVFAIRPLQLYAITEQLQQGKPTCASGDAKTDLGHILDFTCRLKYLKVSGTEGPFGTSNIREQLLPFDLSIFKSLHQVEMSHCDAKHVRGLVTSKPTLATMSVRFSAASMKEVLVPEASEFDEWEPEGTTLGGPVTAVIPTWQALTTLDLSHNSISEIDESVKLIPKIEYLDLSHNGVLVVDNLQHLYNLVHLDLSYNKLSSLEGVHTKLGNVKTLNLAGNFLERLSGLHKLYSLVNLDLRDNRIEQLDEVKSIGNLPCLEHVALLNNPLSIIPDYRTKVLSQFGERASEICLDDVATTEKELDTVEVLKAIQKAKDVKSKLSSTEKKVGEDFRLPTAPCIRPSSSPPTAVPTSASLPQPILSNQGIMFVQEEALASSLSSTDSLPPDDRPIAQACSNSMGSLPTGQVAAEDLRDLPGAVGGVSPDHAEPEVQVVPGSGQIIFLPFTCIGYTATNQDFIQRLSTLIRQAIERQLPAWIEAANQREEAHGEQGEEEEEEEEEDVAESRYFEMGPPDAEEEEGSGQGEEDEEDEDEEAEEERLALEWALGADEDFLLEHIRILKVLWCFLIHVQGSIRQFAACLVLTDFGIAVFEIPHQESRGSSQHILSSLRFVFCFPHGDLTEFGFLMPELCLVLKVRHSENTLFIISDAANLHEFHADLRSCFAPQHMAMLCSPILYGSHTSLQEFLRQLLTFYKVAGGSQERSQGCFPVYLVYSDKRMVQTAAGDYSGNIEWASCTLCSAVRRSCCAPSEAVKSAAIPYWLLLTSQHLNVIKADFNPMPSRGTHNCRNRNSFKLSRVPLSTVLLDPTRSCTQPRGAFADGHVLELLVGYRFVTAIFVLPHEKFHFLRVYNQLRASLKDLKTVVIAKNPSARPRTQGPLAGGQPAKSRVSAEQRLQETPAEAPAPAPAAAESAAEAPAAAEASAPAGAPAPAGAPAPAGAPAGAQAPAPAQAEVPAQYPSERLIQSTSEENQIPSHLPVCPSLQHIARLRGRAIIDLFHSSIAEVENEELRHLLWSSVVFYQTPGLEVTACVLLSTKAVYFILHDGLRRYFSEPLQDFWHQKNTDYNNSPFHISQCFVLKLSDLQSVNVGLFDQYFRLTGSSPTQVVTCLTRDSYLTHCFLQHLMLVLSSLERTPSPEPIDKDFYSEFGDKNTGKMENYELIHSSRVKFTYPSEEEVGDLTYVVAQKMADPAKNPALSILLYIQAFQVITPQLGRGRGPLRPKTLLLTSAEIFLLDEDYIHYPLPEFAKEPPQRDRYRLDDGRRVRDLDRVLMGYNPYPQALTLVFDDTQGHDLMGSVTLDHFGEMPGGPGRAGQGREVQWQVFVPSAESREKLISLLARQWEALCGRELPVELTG

[5] = molecular target: T1, Adrenergic receptor alpha-2 (Homo sapiens, UniProt P08913+P18825+P18089); test: Displacement of [3H]RX821002 from human alpha2 adrenoceptor expressed in CHO cell membranes after 60 mins; format: cell-based
T1 sequence (P08913 whole entry): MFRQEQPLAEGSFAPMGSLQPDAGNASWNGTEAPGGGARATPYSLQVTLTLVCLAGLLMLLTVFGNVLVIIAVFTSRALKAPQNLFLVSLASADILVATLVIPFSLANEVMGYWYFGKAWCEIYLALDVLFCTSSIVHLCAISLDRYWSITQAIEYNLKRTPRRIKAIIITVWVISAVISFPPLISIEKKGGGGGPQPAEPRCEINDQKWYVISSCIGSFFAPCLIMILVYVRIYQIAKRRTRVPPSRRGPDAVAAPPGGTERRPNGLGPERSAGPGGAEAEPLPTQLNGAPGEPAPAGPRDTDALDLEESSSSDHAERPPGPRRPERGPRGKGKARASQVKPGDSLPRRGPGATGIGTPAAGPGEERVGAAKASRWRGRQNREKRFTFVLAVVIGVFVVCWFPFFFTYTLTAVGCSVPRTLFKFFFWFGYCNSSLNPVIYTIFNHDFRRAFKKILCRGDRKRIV
T1 sequence (P18825 whole entry): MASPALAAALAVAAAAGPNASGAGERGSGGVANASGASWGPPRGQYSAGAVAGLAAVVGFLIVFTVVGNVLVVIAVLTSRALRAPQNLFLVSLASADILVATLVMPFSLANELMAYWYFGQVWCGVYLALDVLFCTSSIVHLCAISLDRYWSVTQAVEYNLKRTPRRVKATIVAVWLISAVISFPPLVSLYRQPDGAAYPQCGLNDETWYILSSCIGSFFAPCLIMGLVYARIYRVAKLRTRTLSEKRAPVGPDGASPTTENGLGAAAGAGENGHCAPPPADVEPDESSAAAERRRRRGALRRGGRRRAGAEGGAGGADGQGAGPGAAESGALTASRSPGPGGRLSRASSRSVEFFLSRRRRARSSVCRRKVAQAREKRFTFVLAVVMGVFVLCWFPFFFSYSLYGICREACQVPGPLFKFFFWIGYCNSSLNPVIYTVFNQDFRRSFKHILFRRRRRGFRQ
T1 sequence (P18089 whole entry): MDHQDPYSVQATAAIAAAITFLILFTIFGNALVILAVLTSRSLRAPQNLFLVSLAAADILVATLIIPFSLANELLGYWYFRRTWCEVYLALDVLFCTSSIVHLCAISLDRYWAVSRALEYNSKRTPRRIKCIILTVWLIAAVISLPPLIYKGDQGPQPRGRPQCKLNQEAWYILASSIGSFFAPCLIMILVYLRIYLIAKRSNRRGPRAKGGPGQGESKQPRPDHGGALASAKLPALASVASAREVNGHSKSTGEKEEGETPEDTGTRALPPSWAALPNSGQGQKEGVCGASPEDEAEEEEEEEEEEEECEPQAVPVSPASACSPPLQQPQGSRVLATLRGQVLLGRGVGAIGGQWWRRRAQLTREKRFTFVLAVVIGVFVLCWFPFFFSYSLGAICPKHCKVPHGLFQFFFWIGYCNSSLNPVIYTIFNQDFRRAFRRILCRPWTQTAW

Rattus norvegicus [6] = test: Reduction in mean arterial blood pressure in normotensive anaesthetized Wistar rat at 3 mg/kg, iv; parameters: scale not given: the % may be the effect or the level left
Rattus norvegicus [7] = test: Reduction in heart rate in normotensive anaesthetized Wistar rat at 3 mg/kg, iv; parameters: scale not given: the % may be the effect or the level left
Rattus norvegicus [8] = test: Reduction in heart rate in normotensive anaesthetized Wistar rat at 10 mg/kg, iv; format: functional; parameters: scale not given: the % may be the effect or the level left

| pKi (Nischarin; read-out: Ki) | Ki [5] [µM] | SMILES | Activity (Rattus norvegicus [1]) [%] | Activity (Rattus norvegicus [2]) [%] | Activity (Rattus norvegicus [3]) | Activity (Rattus norvegicus [4]) | further results |
| --- | --- | --- | --- | --- | --- | --- | --- |
|  |  | CC1CC/C(=N/c2ccc3c(c2)CCC3)N1.Cl (stereo not drawn) | 4 | 8 | inactive | inactive |  |
|  | > 10 | Cc1c(Cl)cccc1/N=C1\CC(C)CN1.Cl (stereo not drawn) |  |  | 33% | 30% | Activity (Rattus norvegicus [6]): 30%; Activity (Rattus norvegicus [7]): 18% |
| 7.15 | > 10 | Cc1cccc(/N=C2\CCC(C)N2)c1C.Cl (stereo not drawn) | 18 | 25 | 25% | 20% |  |
| 7.57 | > 10 | Cc1c(Cl)cccc1/N=C1\CCC(C)N1.Cl (stereo not drawn) | 20 | 28 | 30% | 25% |  |
|  |  | Cc1ccc(Cl)c(/N=C2\CCC(C)N2)c1.Cl (stereo not drawn) | 7 | 7 | inactive | inactive |  |
| 8.22 | > 2.24 | CC1CC/C(=N\c2cc(N=[N+]=[N-])c(I)cc2Cl)N1 (stereo not drawn) |  |  |  |  |  |
|  |  | Cc1cccc(C)c1/N=C1/CCC(C)N1.Cl (stereo not drawn) | 4 | 5 | inactive | inactive |  |
| 7.85 |  | Clc1cccc(Cl)c1N=C1NCCN1 [CLONIDINE] |  |  |  |  |  |
|  |  | Cc1ccc(F)c(/N=C2\CCC(C)N2)c1.Cl (stereo not drawn) | 6 | 9 | inactive | inactive |  |
|  | > 10 | CC1CC(NC(C2CC2)C2CC2)=NC1C (stereo not drawn) |  |  |  |  | pKi (Nischarin): 6.27 |
| 7.08 | 0.18 | C1COC(NC(C2CC2)C2CC2)=N1 [RILMENIDINE] |  |  |  |  | Ratio Ki (CHO): 2.1 |
|  |  | CC1CN/C(=N\c2cccc3c2CCCC3)C1.Cl (stereo not drawn) | 3 | 5 | inactive | inactive |  |
|  | > 10 | CC1CN/C(=N\c2ccc(Cl)c3c2CCC3)C1.Cl (stereo not drawn) | 6 | 10 |  |  |  |
|  |  | CC1CC/C(=N/c2cc3c(cc2Cl)CCC3)N1.Cl (stereo not drawn) | 3 | 9 | inactive | inactive |  |
|  | > 10 | Cc1ccc(/N=C2/CC(C)CN2)c2c1CCC2.Cl (stereo not drawn) | 22 | 26 | 15% | 32% |  |
| 7.11 |  | COc1nc(C)nc(Cl)c1N=C1NCCN1 [MOXONIDINE] |  |  |  |  |  |
| 7.72 | > 10 | CC1CN/C(=N\c2cccc3c2CCC3)C1.Cl (stereo not drawn) |  |  | 30% | 30% | Activity (Rattus norvegicus [6]): 35%; Activity (Rattus norvegicus [8]): 22% |
| 8.28 | > 10 | Cc1ccc(F)c(C2=NCCN2)c1 |  |  |  |  |  |
| 8.19 | > 10 | NC1=NCC(COc2ccccc2Br)O1 (stereo not drawn) |  |  |  |  |  |
| 7.14 | > 10 | CC1CC/C(=N/c2cccc3c2CCCC3)N1.Cl (stereo not drawn) | 26 | 37 | 10% | 29% |  |
|  |  | Cc1cc(F)ccc1/N=C1\CCC(C)N1.Cl (stereo not drawn) | 8 | 6 | inactive | inactive |  |
|  |  | CC1CN/C(=N\c2ccc3c(c2)CCC3)C1.Cl (stereo not drawn) | 4 | 8 | inactive | inactive |  |
| 9.70 | > 2.5 | CC1CCC(Nc2ccc(I)cc2Cl)=N1 (stereo not drawn) |  |  |  |  |  |

| SMILES | pKi (Nischarin; read-out: Ki) | Ki [5] [µM] | Activity (Rattus norvegicus [1]) [%] | Activity (Rattus norvegicus [2]) [%] | Activity (Rattus norvegicus [3]) | Activity (Rattus norvegicus [4]) | further results |
| --- | --- | --- | --- | --- | --- | --- | --- |
| Cc1c(Cl)cccc1NC1=NCC(C)C1 (stereo not drawn) | 8.49 |  |  |  |  |  | Ratio Ki (CHO): > 3000 |
| CC1CNC(Nc2c(Cl)cccc2Cl)=N1 (stereo not drawn) |  | > 1.949 |  |  |  |  |  |
| CC1CC/C(=N/c2cccc3c2CCC3)N1.Cl (stereo not drawn) | 7.72 | > 10 | 20 | 37 | 29% | 32% |  |
| Cc1cccc(/N=C2\CC(C)CN2)c1C.Cl (stereo not drawn) | 7.38 | 10 |  |  | 31% | 25% | Activity (Rattus norvegicus [6]): 26%; Activity (Rattus norvegicus [8]): 20% |
| CC1CCC(Nc2ccc(Cl)c3c2CCC3)=N1 (stereo not drawn) | 8.55 |  |  |  | inactive | inactive |  |
| CC1CN=C(Nc2ccc(Cl)c3c2CCC3)C1 (stereo not drawn) | 9.66 |  |  |  | inactive | inactive |  |
| CC1CC/C(=N/c2ccc(Cl)c3c2CCC3)N1.Cl (stereo not drawn) |  | > 10 | 7 | 6 |  |  |  |

Reference: ChEMBL document CHEMBL3407341, “Synthesis and biological evaluation of 2-aryliminopyrrolidines as selective ligands for I1 imidazoline receptors: discovery of new sympatho-inhibitory hypotensive agents with potential beneficial effects in metabolic syndrome” (J Med Chem, 2015)
